For orientation: EC50 means the concentration at which the effect is half-maximal. By AC50 is commonly meant the concentration giving half of the maximal activity seen.

Structures are written as SMILES. Active and inactive are the calls of the source.

Test [1] can be described thus: inhibitors of firefly luciferase expression or activity, dose response, H4 neuroglioma cells, luminescence (AID 1990). The format is functional, cell-based.
Test [2] in a line: NIH-3T3 fibroblast cytotoxicity, dose response, cytotoxicity control, cell-based, fluorescence, Alamar Blue, secondary assay (AID 2327).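 Also: NIH-3T3 mouse fibroblasts cultured with fluconazole at 8 µg/mL.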 The test is classed as functional.
Test [3] in a line: C. albicans growth with fluconazole, confirmation, fluorescence, retest (AID 2467). The test is classed as functional, cell-based.
Test [4] is described as follows: Luminescence Cell-Based Dose Response HTS to Identify Inhibitors of 5'UTR Stem-Loop Driven Prion Protein mRNA Translation in H4 Neuroglioblastoma Cells. [Related pubchem assays: 1827 (Project Summary), 1813 (Primary HTS)]. The format is functional.
Test [5] in a line: inhibitors of SNCA 5'UTR-driven reporter translation, confirmation, H4 neuroglioma cells, luminescence (AID 1988). The format is functional, cell-based.
In a further test the target is Cytochrome P450 2D6 (Homo sapiens, UniProt P10635).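 Also: CYP2D6 member of a cytochrome P450 panel assay.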
A further test concerns the target T1, Cytochrome P450 1A2 (Homo sapiens, UniProt P05177).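 Also: PubChem cytochrome P450 panel assay, CYP1A2 panel member.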
T1 sequence (P05177 whole entry): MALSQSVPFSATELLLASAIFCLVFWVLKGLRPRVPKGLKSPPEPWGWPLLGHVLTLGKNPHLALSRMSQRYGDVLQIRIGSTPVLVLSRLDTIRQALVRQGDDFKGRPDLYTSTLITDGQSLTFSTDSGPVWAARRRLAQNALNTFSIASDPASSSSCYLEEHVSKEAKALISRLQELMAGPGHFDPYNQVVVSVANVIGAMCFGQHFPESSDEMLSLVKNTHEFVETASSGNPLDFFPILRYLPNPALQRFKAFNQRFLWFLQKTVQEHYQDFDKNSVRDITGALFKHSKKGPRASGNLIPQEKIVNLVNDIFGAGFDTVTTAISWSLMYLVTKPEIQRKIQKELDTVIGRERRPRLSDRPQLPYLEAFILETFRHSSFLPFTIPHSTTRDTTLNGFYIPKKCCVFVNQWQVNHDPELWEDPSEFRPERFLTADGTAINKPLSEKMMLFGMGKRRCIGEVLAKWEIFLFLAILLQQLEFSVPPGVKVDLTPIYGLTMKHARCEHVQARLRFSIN

Test [6] is described as follows: inhibitors of intracellular T. cruzi replication, confirmation, NIH3T3 host cells, beta-gal luminescence (AID 2044).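 Also: intracellular parasites grown in NIH/3T3 mouse fibroblasts as host cells; luminescent beta-galactosidase reporter signal from transgenic T. cruzi replicating inside host cells; inhibitors lower the luminescence signal.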 The format is functional, cell-based.
A short description of test [7]: microbe, parasite or virus in culture. The settings on record: Mycobacterium tuberculosis. The format is functional.
Test [8] can be described thus: cytotoxicity toward NIH3T3 fibroblasts, dose response, counter-screen, cell-based, ATP luminescence, mouse fibroblasts (AID 2010).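 Also: cells exposed to compound for about 90 hours before reading.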 The format is functional. Background: Counterscreens check selectivity or assay interference.
In a further test the target is Cytochrome P450 3A4 (Homo sapiens, UniProt P08684).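 Also: CYP3A4 tested as one member of a cytochrome P450 panel screen.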
In a further test the target is Cytochrome P450 2C9 (Homo sapiens, UniProt P11712).
The target of another test is Cytochrome P450 2C19 (Homo sapiens, UniProt P33261). Put plainly: Cytochrome panel assay with activity outcomes. Panel member name: p450-cyp2c19 Compounds with AC50 equal or less than 10 uM are considered active. Conditions: read-out: AC50. The test is classed as functional.
Sequence of Cytochrome P450 2C19 (P33261 whole entry): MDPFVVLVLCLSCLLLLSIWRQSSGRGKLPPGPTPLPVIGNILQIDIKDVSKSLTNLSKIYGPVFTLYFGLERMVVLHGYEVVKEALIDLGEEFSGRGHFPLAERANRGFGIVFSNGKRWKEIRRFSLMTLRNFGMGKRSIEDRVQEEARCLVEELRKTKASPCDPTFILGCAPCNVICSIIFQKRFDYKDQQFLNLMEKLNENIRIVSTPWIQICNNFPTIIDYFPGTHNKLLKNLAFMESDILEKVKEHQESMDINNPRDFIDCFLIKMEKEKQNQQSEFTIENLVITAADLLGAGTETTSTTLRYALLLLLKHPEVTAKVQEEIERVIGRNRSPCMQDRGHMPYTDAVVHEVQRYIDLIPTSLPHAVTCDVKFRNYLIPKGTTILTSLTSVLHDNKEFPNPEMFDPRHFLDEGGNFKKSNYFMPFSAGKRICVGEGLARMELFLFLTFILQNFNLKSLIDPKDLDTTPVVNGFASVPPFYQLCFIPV

Sequence of Cytochrome P450 2D6 (P10635 whole entry): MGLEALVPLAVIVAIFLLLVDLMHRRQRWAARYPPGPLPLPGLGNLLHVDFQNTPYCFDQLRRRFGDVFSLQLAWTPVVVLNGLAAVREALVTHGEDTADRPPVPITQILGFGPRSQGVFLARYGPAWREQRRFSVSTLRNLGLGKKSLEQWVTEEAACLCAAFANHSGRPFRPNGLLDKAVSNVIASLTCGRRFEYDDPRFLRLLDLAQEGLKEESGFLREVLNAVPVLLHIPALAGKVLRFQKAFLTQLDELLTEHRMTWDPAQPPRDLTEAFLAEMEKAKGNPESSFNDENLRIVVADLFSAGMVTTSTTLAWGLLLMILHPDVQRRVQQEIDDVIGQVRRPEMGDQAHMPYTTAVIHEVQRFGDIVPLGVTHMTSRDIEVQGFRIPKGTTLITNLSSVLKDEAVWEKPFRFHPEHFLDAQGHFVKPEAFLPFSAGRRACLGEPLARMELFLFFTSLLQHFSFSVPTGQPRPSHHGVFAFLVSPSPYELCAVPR
Sequence of Cytochrome P450 3A4 (P08684 whole entry): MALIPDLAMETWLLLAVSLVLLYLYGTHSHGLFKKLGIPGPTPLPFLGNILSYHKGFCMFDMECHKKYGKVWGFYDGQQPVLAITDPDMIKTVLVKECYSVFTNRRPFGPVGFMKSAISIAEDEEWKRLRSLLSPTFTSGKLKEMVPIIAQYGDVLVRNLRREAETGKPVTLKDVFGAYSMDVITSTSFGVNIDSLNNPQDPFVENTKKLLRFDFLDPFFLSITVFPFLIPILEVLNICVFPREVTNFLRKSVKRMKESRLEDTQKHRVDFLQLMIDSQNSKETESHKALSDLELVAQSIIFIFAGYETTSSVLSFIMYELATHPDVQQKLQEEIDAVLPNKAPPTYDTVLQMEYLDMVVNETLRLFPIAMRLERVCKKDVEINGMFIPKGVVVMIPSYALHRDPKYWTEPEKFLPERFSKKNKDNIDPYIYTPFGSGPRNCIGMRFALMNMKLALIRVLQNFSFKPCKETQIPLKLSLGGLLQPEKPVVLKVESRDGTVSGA
Sequence of Cytochrome P450 2C9 (P11712 whole entry): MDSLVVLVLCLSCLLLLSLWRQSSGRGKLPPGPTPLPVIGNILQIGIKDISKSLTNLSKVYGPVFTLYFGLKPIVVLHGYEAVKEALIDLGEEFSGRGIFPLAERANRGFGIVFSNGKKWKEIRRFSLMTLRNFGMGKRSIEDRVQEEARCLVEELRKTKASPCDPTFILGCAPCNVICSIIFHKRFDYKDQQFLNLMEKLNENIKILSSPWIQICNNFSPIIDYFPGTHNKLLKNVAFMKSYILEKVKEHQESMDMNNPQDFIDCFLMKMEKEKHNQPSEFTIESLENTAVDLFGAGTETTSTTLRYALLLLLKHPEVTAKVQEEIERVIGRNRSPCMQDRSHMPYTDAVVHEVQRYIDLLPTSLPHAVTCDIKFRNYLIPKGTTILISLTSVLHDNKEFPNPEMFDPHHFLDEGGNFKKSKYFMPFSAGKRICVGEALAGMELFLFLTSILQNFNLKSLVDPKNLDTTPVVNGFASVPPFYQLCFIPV

On to `Cc1nn(-c2ccccc2)c(N2CCCC2)c1/C=N/NC(=O)c1ccccc1O`, for which the EC50 in test [1] was 29.2 µM (active); in test [2] it was > 150 µM (inactive); in test [3], > 38 µM (not active); in test [4], > 120 µM (not active); in [5] it was 27.3 µM (active).

With `O=C(Cc1ccccc1[N+](=O)[O-])NCCSCc1c(F)cccc1Cl`, the results for the AC50 at Cytochrome P450 2D6 and at Cytochrome P450 1A2 were 2.82 µM (inconclusive) and 5.62 µM (inconclusive), respectively.

Take `Cn1cccc1C(=O)N1CCC2(CC1)CN(Cc1cc(C(F)(F)F)cc(C(F)(F)F)c1)C2`: the results for the concentration at half-maximal activity (AC50) on Cytochrome P450 2D6 and on Cytochrome P450 1A2 were 25.1 µM (inconclusive) and 10 µM (inconclusive), respectively.

For `Cn1cc(-c2nc3cnc(N4CCNCC4)nc3n(Cc3ccc(F)cc3)c2=O)c2ccccc21`, the AC50 at Cytochrome P450 2D6 and at Cytochrome P450 1A2 was 20 µM (inconclusive) in each case.

Take `Clc1nc2c(-c3ccccc3)nnn2c2ccccc12`: the EC50 was 2.55 µM (active) in test [6] and > 60 µM (not active) in test [8]. For the same compound, the CC50 in [7] is 27.3 µM (active).

For `Cc1nn(Cc2ccccc2Cl)c(C)c1NC(=O)CCCn1nc(C)c([N+](=O)[O-])c1C`, the results for the concentration for a half-maximal effect (EC50) in test [1], in [4] and in test [5] were 21 µM (active), > 120 µM (not active) and > 120 µM (not active), respectively.

As for `C/C(=N\Nc1ccc(S(=O)(=O)N2CCCCC2)cn1)c1cccc(Br)c1`, in [7], the CC50 is > 40 µM (active).

As for `O=C(CSc1ccc(Cl)cc1)N1CCC(c2nc3ccccc3s2)CC1`, in test [7], the CC50 is 34.7 µM (active).

`Fc1ccc(Nc2ccnc(-c3ccoc3)n2)cc1`: on Cytochrome P450 2D6, the AC50 was 20 µM (inconclusive).

Regarding `O=C(c1ccccc1)c1c[nH]c(C(=O)NCc2cccnc2)c1`, the AC50 on Cytochrome P450 2D6 is 15.8 µM (inconclusive).

With `COc1ccc(Cl)cc1N(CC(=O)Nc1ccccc1C(=O)NCc1ccco1)S(C)(=O)=O`, the EC50 in test [1], in test [4] and in test [5] was > 120 µM (not active) throughout.

As for `COC(=O)COc1ccc(-c2nccc(-c3ccccn3)n2)cc1`, the EC50 was < 0.1 µM (active) in test [1], 7.98 µM (active) in test [4] and 0.159 µM (active) in test [5].

In the case of `OC(c1ccccc1)(c1ccc(F)cc1)C(c1ccccc1)N1CCOCC1` (stereo not given), on Cytochrome P450 2D6, the AC50 is 14.1 µM (inconclusive).

Turning to `COc1ccccc1-n1c2nc3ccccc3nc2c2c(=O)n(-c3cc(C)cc(C)c3)cnc21`, the figures for the EC50 in [1], in test [4] and in [5] were > 120 µM (not active), 0.528 µM (active) and > 120 µM (not active), respectively.

Take `C/C(CCN1CCCCc2nc(C)c(C)cc21)=N\OC[C@@H](O)COCc1ccco1`: on Cytochrome P450 2D6, the AC50 is 7.94 µM (inconclusive).

Turning to `NC(=O)/C(=C\c1ccncc1)c1cccc2ccccc12`, the AC50 on Cytochrome P450 2D6 is 2 µM (inconclusive).

Regarding `COc1ccc(OC)c(NC(=O)CN2C(=O)CSc3ccc(S(=O)(=O)N4CCCC4)cc32)c1`, the concentration for a half-maximal effect (EC50) in test [1], in test [4] and in test [5] was > 120 µM (not active) throughout.

Take `O=C(COc1ccc(Oc2ccccc2)cc1)NCc1cn2ccccc2n1`: the concentration giving a half-maximal response (EC50) in [1] was 12.7 µM (active); in [4] it was 14.8 µM (active); in [5], 8.5 µM (active).

Turning to `CN1CC[C@@]2(CCCN(C(=O)c3ccco3)C2)C1`, the half-maximal activity concentration (AC50) at Cytochrome P450 3A4 and on Cytochrome P450 2D6 was 20 µM (inconclusive) in each case.

Regarding `CCOP(=O)(OCC)c1nc(-c2ccc(Cl)cc2Cl)oc1N1CCCCC1`, the 50% effective concentration (EC50) in test [1] is > 120 µM (not active); in [4] it was > 120 µM (not active); in [5], 20.3 µM (active).

For the compound `CC(NC(=O)Cc1ccc(F)cc1)c1ccccc1` (stereo not given), the AC50 on Cytochrome P450 2C9 was 10 µM (inconclusive); at Cytochrome P450 3A4 it was 25.1 µM (inconclusive); on Cytochrome P450 2D6, 15.8 µM (inconclusive).

`O=C(C1=C[C@@H](c2csc3ccccc23)C[C@@H](OCc2ccc(CO)cc2)O1)N1CCN(Cc2ccc3c(c2)OCO3)CC1`: the concentration giving a half-maximal response (EC50) was 11.3 µM (active) in test [1], > 120 µM (not active) in test [4] and 9.17 µM (active) in test [5].

Turning to `N#Cc1ccc(-c2ccc(F)cc2)nc1Oc1ccc(F)cc1`, the EC50 was > 120 µM (not active) in [1], 22.6 µM (active) in test [4] and > 120 µM (not active) in test [5].

In the case of `CC1CCc2cc(F)ccc2N1C(=O)CSc1n[nH]c2c3cc(F)ccc3nc-2n1` (stereo not given), the half-maximal activity concentration (AC50) at Cytochrome P450 2D6 was 14.1 µM (inconclusive); at Cytochrome P450 2C19, 562 nM (inconclusive).

As for `COc1ccccc1-n1c(SCC(=O)Nc2ccccc2F)nc2nncc-2c1O`, the AC50 was 8.91 µM (inconclusive) at Cytochrome P450 2D6 and 28.2 µM (inconclusive) at Cytochrome P450 1A2.

Regarding `CC(=O)c1cccc(NC(=O)CN2C(=O)COc3ccc(S(=O)(=O)N4CCOCC4)cc32)c1`, the EC50 in test [1], in test [4] and in test [5] was > 120 µM (not active) each time.

In the case of `O=C(C1CCN(c2nc(-c3ccccc3)nc3c2CCC3)CC1)N1CCCC1`, the EC50 in test [1] was > 120 µM (not active); in test [4], 24.7 µM (active); in test [5] it was 16.7 µM (active).

As for `Cc1ccc2nc(N/N=C/c3ccccc3C#N)nc(-c3ccccc3)c2c1`, the CC50 in test [7] was 28.8 µM (active).

For `CCOC(=O)Cc1csc(NC(=O)c2c(O)c3c(n(CC(C)C)c2=O)CCCC3)n1`, the CC50 in test [7] is > 40 µM (active).

Values taken from ChEMBL document CHEMBL1201862, “PubChem BioAssay data set” (2004).
